In US20020086895A1, “Methods of treating fungal infections” (priority 1985, published 2002):

Experiments:
C. albicans = test: Antifungal screen of matrix-synthesis aurones in 96-well plates, C. albicans; assay type: cell-based, Candida albicans
Experimental: (§1) Thirty-eight 96-well plates were prepared with the above samples and tested against both C. albicans and A. fumigatus at either 8 μg/ml or 12.5 μg/ml. Plates with high activity were retested at the same concentration to confirm activity.
(§2) These compounds have formulae where W′ is OH, V is 3′,4′-(1,1-dimethylpropyloxy) to form a dihydropyran series, and X is selected from 3,4-dimethoxyphenyl, 4-t-butylphenyl, 2(prop-2-enyloxy)phenyl, 3-phenoxyphenyl, 3-ethoxy-4-hydroxyphenyl, 6-cyclohexenyl, and norborn-4-yl.

A. fumigatus = test: Antifungal screen of matrix-synthesis aurones in 96-well plates, A. fumigatus; assay type: cell-based, Aspergillus fumigatus
Experimental: as §1, §2

[1] = tested on: Staphylococcus aureus KLE820; test: Activity of selected aurones against Staphylococcus aureus KLE820; assay type: cell-based; settings: read-out: % Inhibition of growth at 10 ug/ml
From the text: Compounds described herein also have activity against bacteria.

[2] = tested on: Candida albicans (strain ATCC #90028); test: Inhibition of Candida spp. culture (XTT); assay type: cell-based; settings: assay validation
Experimental: Candida albicans (strain ATCC #90028), Candida krusei (strain ATCC #90030), and Torulopsis (Candida) glabrata (strain ATCC #6258) were subcultured from cryopreserved stocks onto sabourand dextrose agar plates. Blastoconidia were suspended into RPMI-MOPS (media) and inoculated (500 cfu/well) into 96-well plates containing test compounds in a final volume of 100 μL/well. After 22 hours at 35° C., 25 μL of XTT (2,3-bis(2-methoxy-4-nitro-5-sulfophenyl)-5-[(phenylamino)carbonyl]-2H-tetrazolium hydroxide), (100 μg/mL) with PMS (phenazine methyl sulfate, 5 μM) were added to each well, followed by 2 hours of shaking. Growth was assessed spectrophotometrically by measuring the appearance of soluble formazan stain at 450 nm using an Emax microplate reader.

`COc1ccccc1C=C1Oc2cc3c(c(O)c2C1=O)CCC(C)(C)O3` was tested. Which CA percent inhibition (C. albicans; @8 μg/ml) did it give?
The CA percent inhibition was 76%.

What about the AF percent inhibition (A. fumigatus; @8 μg/ml) of the same compound?
The AF percent inhibition was 70%.

What does the source list for `C=CCc1c(O)cc2c(c1O)C(=O)C(=Cc1cc(C(C)(C)C)c(O)c(C(C)(C)C)c1)O2`?
CA percent inhibition (C. albicans; @8 μg/ml): 49%; AF percent inhibition (A. fumigatus; @8 μg/ml): 60%

For `C=CCc1c(O)cc2c(c1O)C(=O)C(=Cc1ccc(F)cc1F)O2`, which CA percent inhibition (C. albicans; @8 μg/ml) is on record?
Its CA percent inhibition is 53%.

What about the AF percent inhibition (A. fumigatus; @8 μg/ml) of the same compound?
Its AF percent inhibition is 96%.

With `C=CCc1c(O)cc2c(c1O)C(=O)C(=Cc1ccc(OCC)c(OC)c1)O2` as the compound, how does the CA percent inhibition (C. albicans; @8 μg/ml) read?
The CA percent inhibition was 65%.

What about the AF percent inhibition (A. fumigatus; @8 μg/ml) of the same compound?
Its AF percent inhibition is 69%.

How did the CA percent inhibition (C. albicans; @8 μg/ml) turn out when `C=CCc1c(O)cc2c(c1O)C(=O)C(=Cc1ccccc1OCC)O2` was run?
The CA percent inhibition was 22%.

And the AF percent inhibition (A. fumigatus; @8 μg/ml)?
The AF percent inhibition was 52%.

For `C=CCc1c(O)cc2c(c1O)C(=O)C(=Cc1ccccc1OC)O2`, which CA percent inhibition (C. albicans; @8 μg/ml) is on record?
The CA percent inhibition was 20%.

And the AF percent inhibition (A. fumigatus; @8 μg/ml)?
The AF percent inhibition was 62%.

Which results are given for `CC(C)=CCc1c(O)cc2c(c1O)C(=O)C(=Cc1c(C)cccc1C)O2`?
CA percent inhibition (C. albicans; @12.5 μg/ml): 7%; AF percent inhibition (A. fumigatus; @12.5 μg/ml): 0%

With `CC(C)=CCc1c(O)cc2c(c1O)C(=O)C(=Cc1ccccc1C)O2` as the compound, how does the CA percent inhibition (C. albicans; @12.5 μg/ml) read?
The CA percent inhibition was 11%.

And the AF percent inhibition (A. fumigatus; @12.5 μg/ml)?
The AF percent inhibition was 0%.

With `CC(C)=CCc1c(O)cc2c(c1O)C(=O)C(=Cc1ccc(C)cc1)O2` as the compound, how does the CA percent inhibition (C. albicans; @12.5 μg/ml) read?
The CA percent inhibition was “CA 18% AF 18% @12.5 μg/ml”.

And the AF percent inhibition (A. fumigatus; @12.5 μg/ml)?
The AF percent inhibition was “CA 18% AF 18% @12.5 μg/ml”.

With `CCc1ccc(C=C2Oc3cc(O)c(CC=C(C)C)c(O)c3C2=O)cc1` as the compound, how does the CA percent inhibition (C. albicans; @12.5 μg/ml) read?
Its CA percent inhibition is 31%.

And the AF percent inhibition (A. fumigatus; @12.5 μg/ml)?
The AF percent inhibition was 41%.

`CC(C)=CCc1c(O)cc2c(c1O)C(=O)C(=Cc1c(C)cc(C)cc1C)O2` was tested. Which CA percent inhibition (C. albicans; @12.5 μg/ml) did it give?
Its CA percent inhibition is 51%.

What about the AF percent inhibition (A. fumigatus; @12.5 μg/ml) of the same compound?
Its AF percent inhibition is 53%.

For `CC(C)=CCc1c(O)cc2c(c1O)C(=O)C(=Cc1cc(C)cc(C)c1)O2`, which CA percent inhibition (C. albicans; @12.5 μg/ml) is on record?
The CA percent inhibition was “CA 26% AF”.

And the AF percent inhibition (A. fumigatus; @12.5 μg/ml)?
The AF percent inhibition was “#13% @12.5 μg/ml”.

For `Cc1cccc(C)c1C=C1Oc2cc(O)cc(O)c2C1=O`, which AF percent inhibition (A. fumigatus; @12.5 μg/ml) is on record?
Its AF percent inhibition is “CA 0% AF 0% @12.5 μg/ml”.

`Cc1ccccc1C=C1Oc2cc(O)cc(O)c2C1=O` was tested. Which AF percent inhibition (A. fumigatus; @12.5 μg/ml) did it give?
Its AF percent inhibition is “CA 0% AF 0% @12.5 μg/ml”.

For `Cc1ccc(C=C2Oc3cc(O)cc(O)c3C2=O)cc1`, which AF percent inhibition (A. fumigatus; @12.5 μg/ml) is on record?
The AF percent inhibition was “CA 0% AF 0% @12.5 μg/ml”.

Which AF percent inhibition (A. fumigatus; @12.5 μg/ml) does the source give for `CCc1ccc(C=C2Oc3cc(O)cc(O)c3C2=O)cc1` here?
Its AF percent inhibition is “CA 0% AF 0% @12.5 μg/ml”.

With `Cc1cc(C)c(C=C2Oc3cc(O)cc(O)c3C2=O)c(C)c1` as the compound, how does the CA percent inhibition (C. albicans; @12.5 μg/ml) read?
Its CA percent inhibition is 6%.

What about the AF percent inhibition (A. fumigatus; @12.5 μg/ml) of the same compound?
The AF percent inhibition was 48%.

Which CA percent inhibition (C. albicans; @12.5 μg/ml) does the source give for `Cc1cc(C)cc(C=C2Oc3cc(O)cc(O)c3C2=O)c1` here?
Its CA percent inhibition is “CA 4% AF”.

And the AF percent inhibition (A. fumigatus; @12.5 μg/ml)?
Its AF percent inhibition is “#17% @12.5 μg/ml”.

Which results are given for `Cc1cccc(C)c1C=C1Oc2cc3c(c(O)c2C1=O)CCC(C)(C)O3`?
CA percent inhibition (C. albicans; @8 μg/ml): 82%; AF percent inhibition (A. fumigatus; @8 μg/ml): 97%

`Cc1ccccc1C=C1Oc2cc3c(c(O)c2C1=O)CCC(C)(C)O3` was tested. Which CA percent inhibition (C. albicans; @8 μg/ml) did it give?
The CA percent inhibition was 13%.

And the AF percent inhibition (A. fumigatus; @8 μg/ml)?
Its AF percent inhibition is 34%.

Which CA percent inhibition (C. albicans; @8 μg/ml) does the source give for `Cc1ccc(C=C2Oc3cc4c(c(O)c3C2=O)CCC(C)(C)O4)cc1` here?
Its CA percent inhibition is 58%.

And the AF percent inhibition (A. fumigatus; @8 μg/ml)?
Its AF percent inhibition is 93%.

What does the source list for `CCc1ccc(C=C2Oc3cc4c(c(O)c3C2=O)CCC(C)(C)O4)cc1`?
CA percent inhibition (C. albicans; @8 μg/ml): 73%; AF percent inhibition (A. fumigatus; @8 μg/ml): 68%

`Cc1cc(C)c(C=C2Oc3cc4c(c(O)c3C2=O)CCC(C)(C)O4)c(C)c1` was tested. Which CA percent inhibition (C. albicans; @8 μg/ml) did it give?
The CA percent inhibition was 0%.

And the AF percent inhibition (A. fumigatus; @8 μg/ml)?
The AF percent inhibition was 28%.

Which CA percent inhibition (C. albicans; @8 μg/ml) does the source give for `Cc1cc(C)cc(C=C2Oc3cc4c(c(O)c3C2=O)CCC(C)(C)O4)c1` here?
The CA percent inhibition was “CA 0% AF”.

What about the AF percent inhibition (A. fumigatus; @8 μg/ml) of the same compound?
Its AF percent inhibition is “#11% @8 μg/ml”.

Which results are given for `C=CCc1c(O)cc2c(c1O)C(=O)C(=Cc1c(C)cccc1C)O2`?
CA percent inhibition (C. albicans; @8 μg/ml): 7%; AF percent inhibition (A. fumigatus; @8 μg/ml): 49%

For `C=CCc1c(O)cc2c(c1O)C(=O)C(=Cc1ccccc1C)O2`, which CA percent inhibition (C. albicans; @8 μg/ml) is on record?
Its CA percent inhibition is 4%.

And the AF percent inhibition (A. fumigatus; @8 μg/ml)?
Its AF percent inhibition is 11%.

For `C=CCc1c(O)cc2c(c1O)C(=O)C(=Cc1ccc(C)cc1)O2`, which CA percent inhibition (C. albicans; @8 μg/ml) is on record?
Its CA percent inhibition is 10%.

What about the AF percent inhibition (A. fumigatus; @8 μg/ml) of the same compound?
Its AF percent inhibition is 47%.

Which results are given for `C=CCc1c(O)cc2c(c1O)C(=O)C(=Cc1ccc(CC)cc1)O2`?
CA percent inhibition (C. albicans; @8 μg/ml): 16%; AF percent inhibition (A. fumigatus; @8 μg/ml): 47%

`C=CCc1c(O)cc2c(c1O)C(=O)C(=Cc1c(C)cc(C)cc1C)O2` was tested. Which CA percent inhibition (C. albicans; @8 μg/ml) did it give?
Its CA percent inhibition is 16%.

What about the AF percent inhibition (A. fumigatus; @8 μg/ml) of the same compound?
Its AF percent inhibition is 7%.

With `C=CCc1c(O)cc2c(c1O)C(=O)C(=Cc1cc(C)cc(C)c1)O2` as the compound, how does the CA percent inhibition (C. albicans; @8 μg/ml) read?
Its CA percent inhibition is “CA 42% AF”.

What about the AF percent inhibition (A. fumigatus; @8 μg/ml) of the same compound?
Its AF percent inhibition is “#81% @8 μg/ml”.

Which inhibition at 10 µg/mL [1] does the source give for `O=C1/C(=C/c2cc(Cl)cc(Cl)c2O)Oc2cc(O)c(Cc3ccccc3)c(O)c21` here?
Its inhibition at 10 µg/mL is 100%.

How did the CA percent inhibition (C. albicans; @12.5 μg/ml) turn out when `CC(C)=CCc1c(O)cc2c(c1O)C(=O)C(=Cc1ccc(O)c(O)c1)O2` [drawing 36+drawing 32] was run?
Its CA percent inhibition is 92%.

And the AF percent inhibition (A. fumigatus; @12.5 μg/ml)?
Its AF percent inhibition is 0%.

With `NC(=O)OC[C@H](O)[C@@H](O)[C@H](N)C(=O)N[C@H](C(=O)O)[C@H]1O[C@@H](n2cc(C(=O)O)c(=O)[nH]c2=O)[C@H](O)[C@@H]1O` [polyoxin D] as the compound, how does the “C. albicans minimum inhibitory concentration (MIC) compared with reported ranges” value [2] read?
The value was “within reported ranges”.
